Data as given in patent US6352958B1, “Cycloimido-substituted benzofused heterocyclic herbicides” (FMC Corporation, priority 1997, dated 2002).

What was measured:
Type in all cases: in vivo
[1] = system: green foxtail (Setaria viridis); test: Preemergence herbicidal activity, green foxtail; conditions: Rate of Application 0.3 Kg/Ha, examined after 12-17 days
[2] = system: soybean (Glycine max var. Winchester); test: Preemergence herbicidal activity, soybean; conditions: Rate of Application 0.3 Kg/Ha, examined after 12-17 days
[3] = system: wheat (Triticum aestivum var. Lew); test: Postemergence herbicidal activity, wheat; conditions: rate of application 0.3 Kg/Ha, rated after 12-17 days
[4] = system: wheat (Triticum aestivum var. Lew); test: Preemergence herbicidal activity, wheat; conditions: Rate of Application 0.3 Kg/Ha, examined after 12-17 days
[5] = system: velvetleaf (Abutilon theophrasti); test: Postemergence herbicidal activity, velvetleaf; conditions: rate of application 0.3 Kg/Ha, rated after 12-17 days
[6] = system: morningglory (Ipomea lacunosa or Ipomea hederacea); test: Postemergence herbicidal activity, morningglory; conditions: rate of application 0.3 Kg/Ha, rated after 12-17 days
[7] = system: common chickweed (Stellaria media); test: Postemergence herbicidal activity, chickweed; conditions: rate of application 0.3 Kg/Ha, rated after 12-17 days
[8] = system: Johnsongrass (Sorghum halepense); test: Preemergence herbicidal activity, johnsongrass; conditions: Rate of Application 0.3 Kg/Ha, examined after 12-17 days
[9] = system: common cocklebur (Xanthium strumarium L.); test: Preemergence herbicidal activity, cocklebur; conditions: Rate of Application 0.3 Kg/Ha, examined after 12-17 days
[10] = system: common chickweed (Stellaria media); test: Preemergence herbicidal activity, chickweed; conditions: Rate of Application 0.3 Kg/Ha, examined after 12-17 days
[11] = system: green foxtail (Setaria viridis); test: Postemergence herbicidal activity, green foxtail; conditions: rate of application 0.3 Kg/Ha, rated after 12-17 days
[12] = system: morningglory (Ipomea lacunosa or Ipomea hederacea); test: Preemergence herbicidal activity, morningglory; conditions: Rate of Application 0.3 Kg/Ha, examined after 12-17 days
[13] = system: blackgrass (Aloepecurus myosuroides); test: Preemergence herbicidal activity, blackgrass; conditions: Rate of Application 0.3 Kg/Ha, examined after 12-17 days
[14] = system: velvetleaf (Abutilon theophrasti); test: Preemergence herbicidal activity, velvetleaf; conditions: Rate of Application 0.3 Kg/Ha, examined after 12-17 days
[15] = system: field corn (Zea mays var. Pioneer 3732); test: Preemergence herbicidal activity, corn; conditions: Rate of Application 0.3 Kg/Ha, examined after 12-17 days
[16] = system: common cocklebur (Xanthium strumarium L.); test: Postemergence herbicidal activity, cocklebur; conditions: rate of application 0.3 Kg/Ha, rated after 12-17 days
[17] = system: soybean (Glycine max var. Winchester); test: Postemergence herbicidal activity, soybean; conditions: rate of application 0.3 Kg/Ha, rated after 12-17 days
[18] = system: field corn (Zea mays var. Pioneer 3732); test: Postemergence herbicidal activity, corn; conditions: rate of application 0.3 Kg/Ha, rated after 12-17 days
[19] = system: blackgrass (Aloepecurus myosuroides); test: Postemergence herbicidal activity, blackgrass; conditions: rate of application 0.3 Kg/Ha, rated after 12-17 days
[20] = system: Johnsongrass (Sorghum halepense); test: Postemergence herbicidal activity, johnsongrass; conditions: rate of application 0.3 Kg/Ha, rated after 12-17 days

Q: How did the “PREEMERGENCE HERBICIDAL ACTIVITY (% CONTROL) SETVI” value [1] turn out when `CC(C)c1cc2c(Cl)cc(F)c(-n3c(=O)cc(C(F)(F)F)n(C)c3=O)c2o1` [Compound 224] was run?
A: 100%

Q: And the “PREEMERGENCE HERBICIDAL ACTIVITY (% CONTROL) SOY” value [2]?
A: 100%

Q: And the “Postemergence herbicidal activity (% control) WHT” value [3]?
A: 70%

Q: What about the “PREEMERGENCE HERBICIDAL ACTIVITY (% CONTROL) WHT” value [4] of the same molecule?
A: 80%

Q: What about the “Postemergence herbicidal activity (% control) ABUTH” value [5] of the same molecule?
A: 100%

Q: What about the “Postemergence herbicidal activity (% control) IPOSS” value [6] of the same molecule?
A: 100%

Q: What about the “Postemergence herbicidal activity (% control) STEME” value [7] of the same molecule?
A: 100%

Q: And the “PREEMERGENCE HERBICIDAL ACTIVITY (% CONTROL) SORHA” value [8]?
A: 100%

Q: What about the “PREEMERGENCE HERBICIDAL ACTIVITY (% CONTROL) XANPE” value [9] of the same molecule?
A: 95%

Q: What about the “PREEMERGENCE HERBICIDAL ACTIVITY (% CONTROL) STEME” value [10] of the same molecule?
A: 100%

Q: What about the “Postemergence herbicidal activity (% control) SETVI” value [11] of the same molecule?
A: 100%

Q: What about the “PREEMERGENCE HERBICIDAL ACTIVITY (% CONTROL) IPOSS” value [12] of the same molecule?
A: 100%

Q: What about the “PREEMERGENCE HERBICIDAL ACTIVITY (% CONTROL) ALOMY” value [13] of the same molecule?
A: 80%

Q: And the “PREEMERGENCE HERBICIDAL ACTIVITY (% CONTROL) ABUTH” value [14]?
A: 100%

Q: And the “PREEMERGENCE HERBICIDAL ACTIVITY (% CONTROL) CRN” value [15]?
A: 90%

Q: What about the “Postemergence herbicidal activity (% control) XANPE” value [16] of the same molecule?
A: 100%

Q: What about the “Postemergence herbicidal activity (% control) SOY” value [17] of the same molecule?
A: 95%

Q: And the “Postemergence herbicidal activity (% control) CRN” value [18]?
A: 100%

Q: And the “Postemergence herbicidal activity (% control) ALOMY” value [19]?
A: 90%

Q: Which results are given for `Cn1c(C(F)(F)F)cc(=O)n(-c2c(F)cc(Cl)c3cc(C(C)(C)C)oc23)c1=O` [Compound 227]?
A: PREEMERGENCE HERBICIDAL ACTIVITY (% CONTROL) SETVI [1]: 100%; PREEMERGENCE HERBICIDAL ACTIVITY (% CONTROL) SOY [2]: 100%; Postemergence herbicidal activity (% control) WHT [3]: 60%; PREEMERGENCE HERBICIDAL ACTIVITY (% CONTROL) WHT [4]: 80%; Postemergence herbicidal activity (% control) ABUTH [5]: 100%; Postemergence herbicidal activity (% control) IPOSS [6]: 100%; Postemergence herbicidal activity (% control) STEME [7]: 100%; Postemergence herbicidal activity (% control) SORHA [20]: 100%; PREEMERGENCE HERBICIDAL ACTIVITY (% CONTROL) SORHA [8]: 100%; PREEMERGENCE HERBICIDAL ACTIVITY (% CONTROL) STEME [10]: 100%; Postemergence herbicidal activity (% control) SETVI [11]: 100%; PREEMERGENCE HERBICIDAL ACTIVITY (% CONTROL) IPOSS [12]: 100%; PREEMERGENCE HERBICIDAL ACTIVITY (% CONTROL) ALOMY [13]: 95%; PREEMERGENCE HERBICIDAL ACTIVITY (% CONTROL) ABUTH [14]: 100%; PREEMERGENCE HERBICIDAL ACTIVITY (% CONTROL) CRN [15]: 90%; Postemergence herbicidal activity (% control) XANPE [16]: 100%; Postemergence herbicidal activity (% control) SOY [17]: 95%; Postemergence herbicidal activity (% control) CRN [18]: 90%; Postemergence herbicidal activity (% control) ALOMY [19]: 100%

Q: For `CC(OC(C)(C)C)c1cc2c(Cl)cc(F)c(-n3c(=O)cc(C(F)(F)F)n(C)c3=O)c2o1` (stereo not drawn) [Compound 244], which “PREEMERGENCE HERBICIDAL ACTIVITY (% CONTROL) SETVI” value [1] is on record?
A: 100%

Q: What about the “PREEMERGENCE HERBICIDAL ACTIVITY (% CONTROL) SOY” value [2] of the same molecule?
A: 95%

Q: What about the “Postemergence herbicidal activity (% control) WHT” value [3] of the same molecule?
A: 60%

Q: And the “PREEMERGENCE HERBICIDAL ACTIVITY (% CONTROL) WHT” value [4]?
A: 80%

Q: And the “Postemergence herbicidal activity (% control) ABUTH” value [5]?
A: 100%

Q: And the “Postemergence herbicidal activity (% control) IPOSS” value [6]?
A: 100%

Q: And the “Postemergence herbicidal activity (% control) STEME” value [7]?
A: 100%

Q: And the “PREEMERGENCE HERBICIDAL ACTIVITY (% CONTROL) SORHA” value [8]?
A: 100%

Q: What about the “PREEMERGENCE HERBICIDAL ACTIVITY (% CONTROL) XANPE” value [9] of the same molecule?
A: 100%

Q: And the “PREEMERGENCE HERBICIDAL ACTIVITY (% CONTROL) STEME” value [10]?
A: 70%

Q: And the “Postemergence herbicidal activity (% control) SETVI” value [11]?
A: 100%

Q: And the “PREEMERGENCE HERBICIDAL ACTIVITY (% CONTROL) IPOSS” value [12]?
A: 90%

Q: What about the “PREEMERGENCE HERBICIDAL ACTIVITY (% CONTROL) ALOMY” value [13] of the same molecule?
A: 70%

Q: What about the “PREEMERGENCE HERBICIDAL ACTIVITY (% CONTROL) ABUTH” value [14] of the same molecule?
A: 100%

Q: What about the “PREEMERGENCE HERBICIDAL ACTIVITY (% CONTROL) CRN” value [15] of the same molecule?
A: 100%

Q: And the “Postemergence herbicidal activity (% control) XANPE” value [16]?
A: 100%

Q: What about the “Postemergence herbicidal activity (% control) SOY” value [17] of the same molecule?
A: 95%

Q: And the “Postemergence herbicidal activity (% control) CRN” value [18]?
A: 90%

Q: What about the “Postemergence herbicidal activity (% control) ALOMY” value [19] of the same molecule?
A: 75%
